Measured values reported in patent publication US20100069854A1, “Elastomeric Devices Containing Chlorhexidine/Fatty Acid Salts Made From Fatty Acids of 12 to 18 Carbons” (priority 2008, published 2010).

Tests used:
[1] = Rate of release of chlorhexidine/fatty acid salts from coated polyurethane tubes into DI water; format: physicochemical; details: for Cumulative release of the chlorhexidine/fatty acid salts from the coated polyurethane tubes: 1 cm coated tube in DI water, 37° C.; for Time by which approximately all of the salt was released from the coated sample: coated polyurethane tube in DI water
Experimental: A solution of each respective chlorhexidine/fatty acid salt was prepared and used to infuse a sample of elastomeric material. To perform the test, individual samples, 8 cm pieces of polyurethane tube containing a colorant, were surface dip coated in respective solutions of the chlorhexidine/fatty acid salts. The solutions were prepared as follows: 8.6 g of Tecoflex (Noveon, Cleveland, Ohio) was dissolved in 174 g of Tetrahydrofuran and methanol. 5.88 g of chlorhexidine acetate, chlorhexidine laurate, chlorhexidine myristate, chlorhexidine palmitate and chlorhexidine stearate were individually dissolved into the polymer-solvent mixture. The samples were immersed into the solvent-polymer-salt mixture and then dried at room temperature, evaporating the solvent. A polymeric coating was produced on the surface of the tubes. The amounts of chlorhexidine/fatty acid salt adhered per cm of the tube was measured (Table 2) by exhaustively extracting the salt and measuring UV absorbance at 253 nm relative to controls: For each of the samples, the rate of release of chlorhexidine/fatty acid salts into an aqueous solution was determined. To perform the rate of release test, 1 cm from each of the coated polyurethane tubes, were submerged in DeIonized (DI) water and incubated at 37° C. for a period of 28 days to determine the rate of release of the salts from the respective 1 cm samples of coated polyurethane tubing. The water was collected and replaced with fresh water after approximately 2 hours. The water was again collected and replaced with fresh water after the first day and every seven days thereafter. The amount of chlorhexidine/fatty acid salt in the collected water was measured with an Agilent 8453 UV-Vis Diode Array Detector with a manual setup using a cuvette w/path length of 1 cm. Chlorhexidine absorbance was read at 253 nm and concentration was calculated via a calibration curve developed using standards of 1, 5, 10, 20, 30, 35, and 40 μg/mL chlorhexidine acetate in DI Water. The percentage of chlorhexidine/fatty acid salt released from the sample into an aqueous media (percent release) was calculated according to the following equation: Percent release=(cumulative release at that time period/initial content)*100.

[2] = tested on: Pseudomonas aeruginosa ATCC 27853; assay: Basic broth adherence assay on coated polyurethane tubes; format: cell-based; details: for Inhibition of adherence / antimicrobial effect against Pseudomonas aeruginosa (in words): coated polyurethane tubes compared to uncoated control
Experimental: The antimicrobial effectiveness of the coated samples was subjected to different durations of DI water extraction by basic broth adherence assay. For each chlorhexidine/fatty acid salt tested, 3 samples of coated tubing were prepared and assayed. To prepare the inoculum, a culture of Pseudomonas aeruginosa ATCC 27853 was used to challenge the coated polyurethane tubes and controls. The negative control used was a length of uncoated polyurethane tube. The challenge microorganism suspension was prepared as follows: approximately three colonies were removed from a secondary working culture plated on Trypticase Soy Agar (TSA) (BD-Falcon) with 5% sheep's blood and added to 10 ml of Trypticase Soy Broth (TSB). The vial was vortexed for approximately 30 seconds and incubated for 4 hours at 37° C. at 100 rpm. Following incubation, the vial was removed and vortexed. The optical density of the organism suspension was read. The inoculum was then diluted in TSB to a concentration of 5×10^4 colony forming units per milliliter (CFU/mL). This concentration was confirmed by the Miles and Misra drop count method.
The basic broth adherence assay was performed in a 96 well micro titer plate. To each well of the micro titer plate containing either a test article or a control, 900 μl of TSB was added. To this, 100 μl of the adjusted inoculum was added (Note: Due to the 1/10 dilution per well, the starting inoculum concentration of each organism was […] for Pseudomonas aeruginosa). The micro titer plates were then sealed via parafilm® around the edges and wrapped in foil to avoid evaporation of liquid and light contact with the samples. The plates were then placed inside a shaker incubator set at 37° C. and 100 rpm for 24 hours. Incubation at 37° C. then continued until the elapse of 7 days, 14 days, and 21 days, respectively, for each of the 3 samples prepared for each chlorhexidine/fatty acid salt.
At the completion of the respective incubation periods, the samples were rinsed, sonicated, the sonicate was plated and adherence was evaluated. More particularly, following incubation, all samples and controls were dip-rinsed twice in phosphate buffered saline (PBS) to remove the surrounding media. After rinsing, test articles were sonicated in micro titer plate wells containing 1 mL of Dey-Engley (DE) neutralizing broth (Difco). The sonication liquid was then serially diluted, and plated onto the surface of DE neutralizing agar. Plates were incubated at 37° C. for 24 to 48 hours and colonies were counted. Recovery counts were recorded as CFU/mL.

[3] = tested on: Candida albicans ATCC 10231; assay: Zone of inhibition assay with impregnated polyurethane foam discs; format: cell-based; details: for Zone of inhibition compared with the other salts (in words): impregnated polyurethane foam, after several daily transfers / over the 9 day assay
Experimental: To evaluate antimicrobial properties of polyurethane foam samples infused with the various chlorhexidine/fatty acid salts, a zone of inhibition assay was performed. In this assay, 1.4% (w/v) of chlorhexidine acetate, chlorhexidine caprate, chlorhexidine laurate, chlorhexidine myristate, chlorhexidine palmitate and chlorhexidine stearate solutions in methanol were prepared. A supply of 8 mm discs were punched out of a sheet of polyurethane foam (Rynel medical grade polyurethane foam) with biopsy punches (Miltex Kai). Several discs were placed in each of six 50 ml centrifuge tubes. Approximately 5 ml of each of the different methanol/chlorhexidine/fatty acid salt solutions was added to each respective tube. The discs were centrifuged for 5 minutes to remove any air bubbles and soaked for 1 hr to infuse the foam discs with the respective chlorhexidine/fatty acid salt. Infused discs were transferred to clean centrifuge tubes and vacuum dried at 25° C. for 24 hrs to remove any residual solvents. Initial concentrations of salts, impregnated into the punches, were determined by dissolving the impregnated foams and by high pressure liquid chromatography (HPLC) analysis using an Agilent Eclipse XDB-CN 3u 4.6×150 mm column with initial mobile phase=65% DI water/0.2% trifluoroacetic acid (TFA): 35% Acetonitrile/0.2% TFA. Chlorhexidine absorbance was read at 253 nm and concentration was calculated via a chlorhexidine calibration curve. […] To perform the zone of inhibition assay on the impregnated polyurethane foam discs, agar plates were prepared by mixing 11 g Mueller-Hinton cation-adjusted broth and 1.5 g agarose in 500 ml DI water. The agar was autoclaved for 15 minutes at 121° C., 15 psi. 10 ml of the still hot, liquid agar was pipetted onto petri dishes. The challenge organism, Candida albicans ATCC 10231, was cultivated in Trypticase soy broth, standard microbiological growth medium (TSB). Sterile cotton swabs were dipped into the undiluted culture and the plated agar was fully inoculated with swabs. The 8 mm polyurethane foam discs were transferred daily to a freshly inoculated agar for 9 days. The zone of inhibition (ZOI) was measured using calipers. Actual ZOI was measured by subtracting the diameter of the foam (when wet) from the zone measured and dividing by 2. The results are presented in Table 6, with a graphical representation of the ZOI in FIG. 2;

[4] = Incorporation of chlorhexidine salts into silicone tubing (swelling impregnation, extraction, HPLC); format: physicochemical; details: for Salt content in silicone elastomeric medical article: one day, equivalent mass of chlorhexidine base extracted;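 on Salt content in silicone elastomeric medical article: columns differ by chlorhexidine salt concentration in the impregnation solution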
Experimental: Chlorhexidine diacetate, Chlorhexidine dodecanoate and chlorhexidine palmitate were loaded into silicone tubing by first dissolving the chlorhexidine salt in a 90% THF+10% Methanol solution.
Impregnated chlorhexidine was extracted from the tubing by immersing in an excess of THF to fully swell it and then adding an equal volume of water to extract the chlorhexidine salt. The quantity of chlorhexidine was determined by previously enumerated HPLC method. It is reported below for different concentration impregnation solutions in terms of the equivalent mass of chlorhexidine base extracted: […]

[5] = Day 1, daily transfer to fresh agar
[6] = Day 2, daily transfer to fresh agar
[7] = Day 3, daily transfer to fresh agar
[8] = Day 4, daily transfer to fresh agar
[9] = Day 7, daily transfer to fresh agar
[10] = Day 8, daily transfer to fresh agar
[11] = Day 9, daily transfer to fresh agar
[12] = 1% impregnation solution in 90% THF+10% Methanol
[13] = 3% impregnation solution in 90% THF+10% Methanol
[14] = 6% impregnation solution in 90% THF+10% Methanol
[15] = 10% impregnation solution in 90% THF+10% Methanol

| Cumulative release of the chlorhexidine/fatty acid salts from the coated polyurethane tubes ([1]; Day 1) [g] | Cumulative release of the chlorhexidine/fatty acid salts from the coated polyurethane tubes ([1]; Day 7) [g] | Cumulative release of the chlorhexidine/fatty acid salts from the coated polyurethane tubes ([1]; Day 14) [g] | Cumulative release of the chlorhexidine/fatty acid salts from the coated polyurethane tubes ([1]; Day 21) [g] | Cumulative release of the chlorhexidine/fatty acid salts from the coated polyurethane tubes ([1]; Day 28) [g] | Time by which approximately all of the salt was released from the coated sample [1] [days] | Salt content in silicone elastomeric medical article [4, 12] [µg/cm] | Salt content in silicone elastomeric medical article [4, 13] [µg/cm] | Salt content in silicone elastomeric medical article [4, 14] [µg/cm] | SMILES | Log10 reduction of adhered Pseudomonas aeruginosa onto the surface of coated polyurethane tubes ([2]; 7 days) | Log10 reduction of adhered Pseudomonas aeruginosa onto the surface of coated polyurethane tubes ([2]; 14 days) | Log10 reduction of adhered Pseudomonas aeruginosa onto the surface of coated polyurethane tubes ([2]; 21 days) | ZOI produced by impregnated polyurethane foam punches against Candida albicans [3, 5] [mm] | ZOI produced by impregnated polyurethane foam punches against Candida albicans [3, 6] [mm] | ZOI produced by impregnated polyurethane foam punches against Candida albicans [3, 7] [mm] | ZOI produced by impregnated polyurethane foam punches against Candida albicans [3, 8] [mm] | ZOI produced by impregnated polyurethane foam punches against Candida albicans [3, 9] [mm] | ZOI produced by impregnated polyurethane foam punches against Candida albicans [3, 10] [mm] | ZOI produced by impregnated polyurethane foam punches against Candida albicans [3, 11] [mm] | Zone of inhibition compared with the other salts (in words) [3] | further results |
| --- | --- | --- | --- | --- | --- | --- | --- | --- | --- | --- | --- | --- | --- | --- | --- | --- | --- | --- | --- | --- | --- |
| 155 | 222 | 224 | 224 | 224 | ≤ 7 | 262 | 395 | 374 | CC(=O)O.CC(=O)O.NC(=N\CCCCCC/N=C(N)/N=C(\N)Nc1ccc(Cl)cc1)/N=C(\N)Nc1ccc(Cl)cc1 [Chlorhexidine Acetate, chlorhexidine diacetate, reference compound] | 5 | 0 | 0 | 12 | 11 | 14 | 8 | 8 | 12 | 12 | zones of inhibition that were smaller | Percent release of the initial salt concentration from the coated sample ([1]; within 1 day (FIG. 1)): approximately 70%; Inhibition of adherence / antimicrobial effect against Pseudomonas aeruginosa (in words) ([2]; listed as chlorhexidine acetate): inhibition was not apparent at 14 days or thereafter; Inhibition of adherence / antimicrobial effect against Pseudomonas aeruginosa (in words) ([2]; listed as chlorhexidine diacetate): not able to provide an antimicrobial effect against Pseudomonas aeruginosa after 7 days; Salt content in silicone elastomeric medical article [4, 15]: 439 µg/cm |
| 62 | 145 | 165 | 167 | 167 | ≤ 14 | 249 | 408 | 526 | CCCCCCCCCCCC(=O)O.NC(=NCCCCCCN=C(N)N=C(N)Nc1ccc(Cl)cc1)N=C(N)Nc1ccc(Cl)cc1 [Chlorhexidine Laurate, chlorhexidine dilaurate] | 7 | 0 | 0 | 27 | 31 | 32 | 27 | 23 | 31 | 29 | relatively largest ZOI | Inhibition of adherence / antimicrobial effect against Pseudomonas aeruginosa (in words) [2]: inhibition was not apparent at 14 days or thereafter; Salt content in silicone elastomeric medical article [4, 15]: 614 µg/cm; Absorption into silicone tubing compared with the other salts (in words) ([4]; silicone tubing, 90% THF+10% Methanol): absorbed at much higher concentrations than the other salts |
